# Results: PMC5096734 (Chembiochem : a European journal of chemical biology, 2014)
# Assays:
# Assay in all cases: fluorogenic hydrolysis, Michaelis-Menten
# PLE = assay type: biochemical, Sus scrofa
# B. subtilis esterase = assay type: biochemical, Bacillus subtilis; details: enzyme 0.5 μg/mL
# M. miehei lipase = target: T1, M. miehei lipase (Rhizomucor miehei, UniProt P19515); assay type: biochemical; details: enzyme 10 μg/mL
# T1 sequence (P19515 95-363): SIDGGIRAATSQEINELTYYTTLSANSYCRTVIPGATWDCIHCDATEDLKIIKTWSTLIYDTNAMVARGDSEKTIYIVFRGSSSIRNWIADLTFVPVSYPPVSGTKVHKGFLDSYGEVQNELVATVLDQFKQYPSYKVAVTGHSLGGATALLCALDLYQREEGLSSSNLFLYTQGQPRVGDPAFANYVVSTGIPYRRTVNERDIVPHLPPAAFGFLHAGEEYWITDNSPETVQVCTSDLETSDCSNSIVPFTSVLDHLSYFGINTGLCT
# C. antarctica lipase = assay type: biochemical, Moesziomyces antarcticus; details: enzyme 10 μg/mL
Molecule,Km (PLE; enzyme 0.5 μg/mL) [µM],Km (B. subtilis esterase) [µM],Km (M. miehei lipase) [µM],Km (C. antarctica lipase) [µM],Km (PLE; enzyme 0.050 μg/mL) [µM]
DDAO-AME 1,7.5 ± 0.8,6.7 ± 0.5,4.4 ± 0.7,9.5 ± 1.1,
CC(=O)OCOc1ccc2nc3ccc(=O)cc-3oc2c1 [Res-AME],,19 ± 2,,6.8 ± 0.4,4.9 ± 0.7
